Consider two molecules from PMC4183699, “A Relay Network of Extracellular Heme-Binding Proteins Drives C. albicans Iron Acquisition from Hemoglobin” (PLoS Pathogens, 2014).

The target in experiment [1] is T1, Pga7 (Candida albicans, UniProt Q59UT5).
T1 construct: Pga7_18–195 (C-terminal Myc-6×His, expressed in Pichia pastoris)
The experiment in a line: ITC; also Soret-shift UV-Vis titration ([…]), 1H NMR, hemin-agarose pull-down. The experiment is classed as binding. On the technique in general: In ITC the heat of successive injections is recorded.

Experiment [2] deals with T2, Rbt5 (Candida albicans, UniProt Q59UT4).
T2 construct: Rbt5_23–219 (C-terminal Myc-6×His, expressed in Pichia pastoris)
The experiment in a line: ITC; also hemin-agarose pull-down, size exclusion co-elution, Soret peak. The experiment is classed as binding.

The target in experiment [3] is T3, Rbt5(23–219)-Myc-6×His (C. albicans, UniProt Q59UT4 23-219).
T3 construct: Rbt5, C. albicans CFEM protein, residues 23-219: from the predicted signal peptide cleavage site to the predicted GPI anchor addition site; RBT5 nucleotides +67 to +657 cloned EcoRI-XbaI into pPICZalphaA (KB2258); Apo-protein (heme removed with 3 M imidazole); The vector pPICZalphaA may leave a few residues at the N-terminus after the alpha-factor signal is cut; also called rRbt5; recombinant …
T3 sequence: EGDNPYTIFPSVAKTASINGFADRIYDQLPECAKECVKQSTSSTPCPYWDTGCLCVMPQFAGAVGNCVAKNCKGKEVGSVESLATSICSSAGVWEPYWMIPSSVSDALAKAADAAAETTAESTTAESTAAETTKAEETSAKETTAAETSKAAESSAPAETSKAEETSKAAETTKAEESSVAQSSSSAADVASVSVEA
Nature of the experiment: SPR; Biacore T200; apo-Pga7(18–195), apo-Rbt5(23–219) and apo-Rbt5(23–219) D72A immobilised on a CM-5 chip by amine chemistry; 3 µM holo-Pga7(18–195) (with heme) injected for 60 sec; double-blanked against an empty cell and buffer. The note with it: both partners purified. In general terms: SPR reads the build-up and loss of mass on a sensor chip optically.

As usually defined, the Kd is the constant that tells how readily two partners part at equilibrium. `C=CC1=C(C)C2=Cc3c(C=C)c(C)c4[n]3[Fe]([Cl])[n]3c(c(C)c(CCC(=O)O)c3=CC3=NC(=C4)C(C)=C3CCC(=O)O)=CC1=N2` [hemin]: the Kd in experiment [1] amounted to 65 nM; in experiment [2], 5400 nM.

B1: Pga7(18–195)-Myc-6×His (domain or fragment)
chain: NFGTYPKVPKTASINGFADPIYDLLPDCAKECVKFSTSNTPCPYWDTGCFCVMPQWAGLVGQCVAQKCKGEDVASARFLATSLCSVVGANTWMMPASISSMLSTAAGDAKEVTTIEGKTAKSWVTAPGSAAGSVVSETGSASETGSSESAQSTTTGSSSTGSSSTDSSSSSSSSPSSS
notes: Pga7, C. albicans CFEM protein, residues 18-195: from the predicted signal peptide cleavage site to the predicted GPI anchor addition site; PGA7 nucleotides +52 to +585 cloned EcoRI-XbaI into pPICZalphaA (KB2259); Used as apo-protein (heme removed) or as holo-protein (loaded with heme, not covalent); both are this one construct; The vector pPICZalphaA may leave a few residues at the N-terminus …
As to B1, the binding result in experiment [3] is on record as “binds”.
